From patent US12227500B2, “Substituted pyrrolo[2,3-b]pyridines for suppressing toxic endoplasmic reticulum stress” (THE TRUSTEES OF COLUMBIA UNIVERSITY IN THE CITY OF NEW YORK, priority 2018, dated 2025)
Where two headings read alike, the source gives them in different places.

Key:
[1] = system: human ES motor neurons carrying the ALS-causing SOD1^A4V mutation; assay: cells; assay type: cell-based; settings: 72 h, 72 h; for EC50 / Emax: CPA 33 μM; for EC50: read-out: EC50; for viability at 1 µM: CPA (33 μM) + compound (1 μM), read-out: Motor Neuron Survival, % untreated; for Emax: read-out: Emax (MN survival % untreated)
Procedure: Next, survival assays were performed with all the analogs at once to generate a low-variability dataset. All compounds were evaluated at concentrations ranging from 0.1-3.0 μM (five-point dilution) in three technical replicates and two biological replicates.

[2] = target: T1, panel of 371 human kinases (Homo sapiens, UniProt Q9H792); assay: Radiolabeled ATP kinase assay, panel of 371 kinases (Table S6); assay type: biochemical; settings: PEAK1; 0.1 μM; 10 μM ATP; read-out: % Enzyme Activity (relative to DMSO controls)
T1 construct: purchased Reaction Biology Corp
Description: (§1) ; FIG. 38C). […]. Further targeted analyses, such as genetic knock-down or knock-out, may be warranted to parse the role of these additional kinases in our model of neurodegeneration.

[3] = target: T2, panel of 371 human kinases (Homo sapiens, UniProt Q7L7X3); assay: as above; assay type: biochemical; settings: TAOK1; 0.1 μM; 10 μM ATP; read-out: % Enzyme Activity (relative to DMSO controls)
T2 construct: purchased Reaction Biology Corp
Description: as §1

[4] = target: T3, panel of 371 human kinases (Homo sapiens, UniProt P22455); assay: as above; assay type: biochemical; settings: FGFR4; 0.1 μM; 10 μM ATP; read-out: % Enzyme Activity (relative to DMSO controls)
T3 construct: purchased Reaction Biology Corp
Description: as §1

[5] = target: T4, panel of 371 human kinases (Homo sapiens, UniProt Q96PF2); assay: as above; assay type: biochemical; settings: TSSK2; 0.1 μM; 10 μM ATP; read-out: % Enzyme Activity (relative to DMSO controls)
T4 construct: purchased Reaction Biology Corp
Description: as §1

[6] = target: T5, panel of 371 human kinases (Homo sapiens, UniProt Q9NWZ3); assay: as above; assay type: biochemical; settings: IRAK4; 0.1 μM; 10 μM ATP; read-out: % Enzyme Activity (relative to DMSO controls)
T5 construct: purchased Reaction Biology Corp
Description: as §1

[7] = target: T6, panel of 371 human kinases (Homo sapiens, UniProt P23443); assay: as above; assay type: biochemical; settings: p70S6K/RPS6KB1; 0.1 μM; 10 μM ATP; read-out: % Enzyme Activity (relative to DMSO controls)
T6 construct: purchased Reaction Biology Corp
Description: as §1

[8] = target: T7, panel of 371 human kinases (Homo sapiens, UniProt P57059); assay: as above; assay type: biochemical; settings: SIK1; 0.1 μM; 10 μM ATP; read-out: % Enzyme Activity (relative to DMSO controls)
T7 construct: purchased Reaction Biology Corp
Description: as §1

[9] = target: T8, panel of 371 human kinases (Homo sapiens, UniProt P17948); assay: as above; assay type: biochemical; settings: FLT1/VEGFR1; 0.1 μM; 10 μM ATP; read-out: % Enzyme Activity (relative to DMSO controls)
T8 construct: purchased Reaction Biology Corp
Description: as §1

[10] = target: T9, panel of 371 human kinases (Homo sapiens, UniProt P78362); assay: as above; assay type: biochemical; settings: SRPK2; 0.1 μM; 10 μM ATP; read-out: % Enzyme Activity (relative to DMSO controls)
T9 construct: purchased Reaction Biology Corp
Description: as §1

[11] = target: T10, panel of 371 human kinases (Homo sapiens, UniProt Q9UPE1); assay: as above; assay type: biochemical; settings: MSSK1/STK23; 0.1 μM; 10 μM ATP; read-out: % Enzyme Activity (relative to DMSO controls)
T10 construct: purchased Reaction Biology Corp
Description: as §1

[12] = target: T11, panel of 371 human kinases (Homo sapiens, UniProt Q15418); assay: as above; assay type: biochemical; settings: RSK1; 0.1 μM; 10 μM ATP; read-out: % Enzyme Activity (relative to DMSO controls)
T11 construct: purchased Reaction Biology Corp
Description: as §1

[13] = target: T12, panel of 371 human kinases (Homo sapiens, UniProt P29322); assay: as above; assay type: biochemical; settings: EPHA8; 0.1 μM; 10 μM ATP; read-out: % Enzyme Activity (relative to DMSO controls)
T12 construct: purchased Reaction Biology Corp
Description: as §1

[14] = target: T13, panel of 371 human kinases (Homo sapiens, UniProt Q9P0L2); assay: as above; assay type: biochemical; settings: MARK1; 0.1 μM; 10 μM ATP; read-out: % Enzyme Activity (relative to DMSO controls)
T13 construct: purchased Reaction Biology Corp
Description: as §1

[15] = target: T14, panel of 371 human kinases (Homo sapiens, UniProt P29317); assay: as above; assay type: biochemical; settings: EPHA2; 0.1 μM; 10 μM ATP; read-out: % Enzyme Activity (relative to DMSO controls)
T14 construct: purchased Reaction Biology Corp
Description: as §1

[16] = target: T15, panel of 371 human kinases (Homo sapiens, UniProt Q9Y463); assay: as above; assay type: biochemical; settings: DYRK1B; 0.1 μM; 10 μM ATP; read-out: % Enzyme Activity (relative to DMSO controls)
T15 construct: purchased Reaction Biology Corp
Description: as §1

[17] = target: T16, panel of 371 human kinases (Homo sapiens, UniProt P48729); assay: as above; assay type: biochemical; settings: CK1a1; 0.1 μM; 10 μM ATP; read-out: % Enzyme Activity (relative to DMSO controls)
T16 construct: purchased Reaction Biology Corp
Description: as §1

[18] = target: T17, panel of 371 human kinases (Homo sapiens, UniProt Q08881); assay: as above; assay type: biochemical; settings: ITK; 0.1 μM; 10 μM ATP; read-out: % Enzyme Activity (relative to DMSO controls)
T17 construct: purchased Reaction Biology Corp
Description: as §1

[19] = target: T18, panel of 371 human kinases (Homo sapiens, UniProt Q15208); assay: as above; assay type: biochemical; settings: STK38/NDR1; 0.1 μM; 10 μM ATP; read-out: % Enzyme Activity (relative to DMSO controls)
T18 construct: purchased Reaction Biology Corp
Description: as §1

[20] = target: T19, panel of 371 human kinases (Homo sapiens, UniProt P15735); assay: as above; assay type: biochemical; settings: PHKg2; 0.1 μM; 10 μM ATP; read-out: % Enzyme Activity (relative to DMSO controls)
T19 construct: purchased Reaction Biology Corp
Description: as §1

in vitro = settings: CD-1, mouse, liver microsomes, pH 7.4
Procedure: To test the metabolic stability of the analogs, an in vitro microsomal stability assay was carried out.
The microsomal stability assay was performed in 96-well format (Perkin-Elmer, StorPlate-96U, PP, 96 well, round bottom). […] A stock solution of the compound to be analyzed (0.8 μL. 5 mM) or ethoxycoumarin (positive control, 0.8 μL, 5 mM) was added and the mixture was warmed to 37° C. for 5 minutes. The mouse microsomes (CD-1, 5 μL, thawed in a 37° C. water bath before use, 20 mg/mL, Life Technologies) were added. At selected time points (0, 15, 30, 45, 60 and 120 minutes) aliquots (15 μL) were withdrawn from the plate and quenched upon addition to cold acetonitrile (60 μL), containing an internal standard (5 μM) in a 96-well plate. The samples were centrifuged at 13,000 rpm for 10 minutes at 4° C. The supernatant (40 μL) was withdrawn and transferred to a sample vial with insert. The samples were analyzed by LC-MS.
LC-MS analysis was performed on a platform comprising a Thermo Scientific Dionex Ultimate 3000 and a Bruker amaZon SL equipped with an electrospray ionization source controlled by Bruker Hystar 3.2. […] The flow rate was maintained at 400 μL/min. The initial flow conditions were 60% solvent A (water containing 0.1% acetic acid) and 40% solvent B (methanol containing 0.1% acetic acid).
Aliquots were taken over the course of two hours and analyzed by HPLG-MS using an internal standard to assess compound stability over time.

[21] = Plasma and brain concentration after IV injection (FIG. 13B); assay type: in vivo, mouse; settings: 10 mg/kg
Procedure: Drug concentrations were analyzed by LC-MS.

N9 microglial cells = assay: TNFα release by LPS-stimulated microglia (ELISA); assay type: cell-based, mouse; settings: for TNFα secretion in LPS-stimulated microglia: LPS 0.1-5 μM, 24 h
Procedure: To model microglial activation in vitro, we stimulated mouse N9 microglial cells with increasing concentrations of E. coli-derived lipopolysaccharides (LPS) (0.1-5 μM) to measure release of the pro-inflammatory cytokine TNFα into cell culture media.
Cultures were maintained in DMEM containing FBS (10%, Life Technologies) and Glutamax (1%, Life Technologies). […] N9 cells remaining in the culture dishes were treated with AlamarBlue (Thermo Fisher) to assess viability. 5 μL AlamarBlue was added to each well (containing 50 μL culture media) and incubated for 4 h at 37°.

T7 sequence (P57059 whole entry): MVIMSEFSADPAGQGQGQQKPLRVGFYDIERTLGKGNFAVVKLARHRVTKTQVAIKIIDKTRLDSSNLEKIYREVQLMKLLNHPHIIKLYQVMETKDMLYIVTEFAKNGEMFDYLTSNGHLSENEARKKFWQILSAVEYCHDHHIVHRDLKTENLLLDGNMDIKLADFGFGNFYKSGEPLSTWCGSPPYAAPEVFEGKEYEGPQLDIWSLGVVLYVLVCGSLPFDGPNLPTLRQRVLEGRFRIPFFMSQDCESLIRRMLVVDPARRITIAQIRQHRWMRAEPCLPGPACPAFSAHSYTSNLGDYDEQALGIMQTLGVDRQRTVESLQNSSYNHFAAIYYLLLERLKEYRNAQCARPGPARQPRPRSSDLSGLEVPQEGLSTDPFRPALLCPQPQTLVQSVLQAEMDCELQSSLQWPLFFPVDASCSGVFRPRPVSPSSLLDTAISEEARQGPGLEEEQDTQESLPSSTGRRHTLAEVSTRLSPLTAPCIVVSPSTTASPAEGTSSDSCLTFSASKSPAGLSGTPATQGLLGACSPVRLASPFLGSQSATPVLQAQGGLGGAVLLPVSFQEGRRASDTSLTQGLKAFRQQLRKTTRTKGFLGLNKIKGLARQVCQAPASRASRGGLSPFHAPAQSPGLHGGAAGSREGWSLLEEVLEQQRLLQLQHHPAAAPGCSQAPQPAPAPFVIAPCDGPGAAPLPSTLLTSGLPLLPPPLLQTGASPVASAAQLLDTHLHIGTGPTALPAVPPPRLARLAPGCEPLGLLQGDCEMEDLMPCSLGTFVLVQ
T9 sequence (P78362 whole entry): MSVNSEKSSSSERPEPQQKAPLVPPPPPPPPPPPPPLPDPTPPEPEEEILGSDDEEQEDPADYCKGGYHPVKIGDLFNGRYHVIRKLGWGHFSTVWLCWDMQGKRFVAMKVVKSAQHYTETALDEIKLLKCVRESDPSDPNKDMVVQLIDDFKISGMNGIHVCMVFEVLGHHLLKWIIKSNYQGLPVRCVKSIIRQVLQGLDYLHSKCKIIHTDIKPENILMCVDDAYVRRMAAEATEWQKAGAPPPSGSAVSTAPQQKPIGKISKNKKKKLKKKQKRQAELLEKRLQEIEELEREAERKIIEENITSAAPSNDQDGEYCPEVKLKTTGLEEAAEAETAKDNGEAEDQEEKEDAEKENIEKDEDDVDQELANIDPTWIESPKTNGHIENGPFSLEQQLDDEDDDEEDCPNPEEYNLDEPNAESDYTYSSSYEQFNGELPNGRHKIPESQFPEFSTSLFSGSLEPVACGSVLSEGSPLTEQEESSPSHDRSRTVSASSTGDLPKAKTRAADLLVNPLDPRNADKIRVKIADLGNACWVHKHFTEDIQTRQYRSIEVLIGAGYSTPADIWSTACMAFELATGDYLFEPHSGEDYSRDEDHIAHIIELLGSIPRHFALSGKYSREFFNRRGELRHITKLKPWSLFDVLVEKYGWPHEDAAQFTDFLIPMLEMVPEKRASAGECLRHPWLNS
T5 sequence (Q9NWZ3 whole entry): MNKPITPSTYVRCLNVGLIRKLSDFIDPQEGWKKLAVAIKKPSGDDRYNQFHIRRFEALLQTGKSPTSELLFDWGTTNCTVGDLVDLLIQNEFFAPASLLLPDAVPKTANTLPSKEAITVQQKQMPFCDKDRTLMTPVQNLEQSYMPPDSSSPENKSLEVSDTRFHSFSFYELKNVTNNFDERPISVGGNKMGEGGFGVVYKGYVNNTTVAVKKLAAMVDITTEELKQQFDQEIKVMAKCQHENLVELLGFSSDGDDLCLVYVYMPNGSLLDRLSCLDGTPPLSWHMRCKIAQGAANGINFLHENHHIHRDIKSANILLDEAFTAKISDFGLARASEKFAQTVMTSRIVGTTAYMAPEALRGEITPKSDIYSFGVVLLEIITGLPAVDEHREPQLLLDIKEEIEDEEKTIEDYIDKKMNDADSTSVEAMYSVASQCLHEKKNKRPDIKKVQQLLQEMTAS
T13 sequence (Q9P0L2 whole entry): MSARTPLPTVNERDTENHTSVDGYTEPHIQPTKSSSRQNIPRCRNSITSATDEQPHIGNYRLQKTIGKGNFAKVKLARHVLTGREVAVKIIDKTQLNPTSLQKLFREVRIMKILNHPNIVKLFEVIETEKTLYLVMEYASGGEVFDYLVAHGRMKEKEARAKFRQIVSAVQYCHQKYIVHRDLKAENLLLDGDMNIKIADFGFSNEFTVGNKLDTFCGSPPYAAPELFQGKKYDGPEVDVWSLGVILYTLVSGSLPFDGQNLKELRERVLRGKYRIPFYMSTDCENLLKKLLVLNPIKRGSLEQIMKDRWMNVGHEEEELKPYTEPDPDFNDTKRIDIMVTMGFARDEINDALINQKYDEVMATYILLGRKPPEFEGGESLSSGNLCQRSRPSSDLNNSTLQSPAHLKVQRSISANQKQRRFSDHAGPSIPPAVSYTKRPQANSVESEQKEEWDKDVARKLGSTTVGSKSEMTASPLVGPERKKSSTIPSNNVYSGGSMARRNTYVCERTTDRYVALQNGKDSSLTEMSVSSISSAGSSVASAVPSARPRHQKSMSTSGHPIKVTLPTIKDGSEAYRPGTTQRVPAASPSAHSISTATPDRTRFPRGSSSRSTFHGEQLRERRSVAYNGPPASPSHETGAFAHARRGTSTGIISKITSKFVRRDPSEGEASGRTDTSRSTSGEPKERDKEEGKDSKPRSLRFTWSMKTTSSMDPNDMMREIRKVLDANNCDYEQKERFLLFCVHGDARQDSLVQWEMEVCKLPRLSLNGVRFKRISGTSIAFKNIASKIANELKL
T12 sequence (P29322 28-1005): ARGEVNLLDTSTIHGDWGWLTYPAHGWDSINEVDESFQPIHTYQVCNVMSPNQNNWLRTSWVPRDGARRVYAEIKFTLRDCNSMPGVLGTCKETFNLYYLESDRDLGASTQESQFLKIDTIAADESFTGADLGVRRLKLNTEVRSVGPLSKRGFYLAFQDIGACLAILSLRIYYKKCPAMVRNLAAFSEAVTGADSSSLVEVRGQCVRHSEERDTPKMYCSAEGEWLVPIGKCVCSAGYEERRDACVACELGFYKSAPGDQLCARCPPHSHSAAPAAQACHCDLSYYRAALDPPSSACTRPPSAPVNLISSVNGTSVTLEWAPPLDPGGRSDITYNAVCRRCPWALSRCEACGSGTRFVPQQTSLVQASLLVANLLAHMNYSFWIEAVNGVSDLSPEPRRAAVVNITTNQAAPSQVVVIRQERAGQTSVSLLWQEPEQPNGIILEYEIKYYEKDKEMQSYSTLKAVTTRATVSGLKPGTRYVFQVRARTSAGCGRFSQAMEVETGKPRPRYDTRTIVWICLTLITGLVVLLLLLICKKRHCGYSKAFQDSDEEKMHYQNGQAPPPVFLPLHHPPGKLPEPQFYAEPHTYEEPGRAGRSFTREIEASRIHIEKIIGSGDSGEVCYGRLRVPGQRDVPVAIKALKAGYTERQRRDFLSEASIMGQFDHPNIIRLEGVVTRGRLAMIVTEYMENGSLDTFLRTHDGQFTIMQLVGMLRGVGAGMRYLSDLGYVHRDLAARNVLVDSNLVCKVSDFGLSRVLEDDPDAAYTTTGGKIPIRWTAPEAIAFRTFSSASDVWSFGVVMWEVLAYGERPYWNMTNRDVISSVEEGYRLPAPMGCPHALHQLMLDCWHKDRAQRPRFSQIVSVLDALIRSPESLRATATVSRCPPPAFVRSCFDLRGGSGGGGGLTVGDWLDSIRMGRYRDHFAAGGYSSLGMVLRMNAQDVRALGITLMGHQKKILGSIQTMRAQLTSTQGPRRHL
T3 sequence (P22455 22-802): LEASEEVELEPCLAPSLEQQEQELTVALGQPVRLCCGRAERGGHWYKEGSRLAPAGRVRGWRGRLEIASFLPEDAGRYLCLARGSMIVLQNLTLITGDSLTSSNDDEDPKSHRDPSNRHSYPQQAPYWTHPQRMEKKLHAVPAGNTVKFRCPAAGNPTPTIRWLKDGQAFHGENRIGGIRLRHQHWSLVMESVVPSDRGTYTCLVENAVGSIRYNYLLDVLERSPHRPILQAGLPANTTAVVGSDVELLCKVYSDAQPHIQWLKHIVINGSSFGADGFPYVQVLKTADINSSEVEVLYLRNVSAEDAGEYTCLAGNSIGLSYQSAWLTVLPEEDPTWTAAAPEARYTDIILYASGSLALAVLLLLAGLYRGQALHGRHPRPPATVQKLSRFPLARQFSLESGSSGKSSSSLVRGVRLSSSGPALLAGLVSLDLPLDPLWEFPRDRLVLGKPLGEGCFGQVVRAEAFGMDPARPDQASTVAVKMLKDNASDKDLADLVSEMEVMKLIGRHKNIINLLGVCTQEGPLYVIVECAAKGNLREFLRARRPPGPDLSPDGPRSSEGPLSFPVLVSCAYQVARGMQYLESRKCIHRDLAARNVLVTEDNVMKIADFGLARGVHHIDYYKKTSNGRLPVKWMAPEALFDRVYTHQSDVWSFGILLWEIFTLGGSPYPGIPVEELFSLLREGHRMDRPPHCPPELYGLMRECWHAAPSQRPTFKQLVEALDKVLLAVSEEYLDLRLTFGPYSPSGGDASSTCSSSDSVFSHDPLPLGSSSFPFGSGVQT
T19 sequence (P15735 whole entry): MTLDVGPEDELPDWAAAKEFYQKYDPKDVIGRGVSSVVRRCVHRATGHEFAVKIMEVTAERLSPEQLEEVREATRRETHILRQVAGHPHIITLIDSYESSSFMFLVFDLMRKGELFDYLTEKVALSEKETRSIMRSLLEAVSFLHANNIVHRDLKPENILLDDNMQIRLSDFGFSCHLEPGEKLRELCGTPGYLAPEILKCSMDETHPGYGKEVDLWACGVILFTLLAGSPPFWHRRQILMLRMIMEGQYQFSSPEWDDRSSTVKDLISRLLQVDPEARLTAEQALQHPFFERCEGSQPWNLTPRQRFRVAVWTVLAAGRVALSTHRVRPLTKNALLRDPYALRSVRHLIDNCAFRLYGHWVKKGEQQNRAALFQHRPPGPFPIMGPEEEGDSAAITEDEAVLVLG

CN1CCN(Cc2ccc(-c3cnc4[nH]cc(-c5ccc6[nH]ccc6c5)c4c3)cc2)CC1 [Compound 1, 3-(1H-Indol-5-yl)-5-(4-((4-methylpiperazin-1-yl)methyl)phenyl)-1H-pyrrolo[2,3-b]pyridine, reference compound]
EC50 ([1]; Homo sapiens, Neuron): 215 nM | viability at 1 µM ([1]; Homo sapiens, Neuron): 102% | Emax ([1]; Homo sapiens, Neuron): 102% | remaining activity at 0.1 µM [2]: 109% | remaining activity at 0.1 µM [3]: 78.3% | remaining activity at 0.1 µM [4]: 97.2% | remaining activity at 0.1 µM [5]: 115% | remaining activity at 0.1 µM [6]: 106% | remaining activity at 0.1 µM [7]: 93.2% | remaining activity at 0.1 µM [8]: 102% | remaining activity at 0.1 µM [9]: 88.2% | remaining activity at 0.1 µM [10]: 80.3% | remaining activity at 0.1 µM [11]: 112% | remaining activity at 0.1 µM [12]: 85.4% | remaining activity at 0.1 µM [13]: 90.8% | remaining activity at 0.1 µM [14]: 86.2% | remaining activity at 0.1 µM [15]: 93.6% | remaining activity at 0.1 µM [16]: 43.2% | remaining activity at 0.1 µM [17]: 102% | remaining activity at 0.1 µM [18]: 101% | remaining activity at 0.1 µM [19]: 88.1% | remaining activity at 0.1 µM [20]: 86% | half-life at 20 μM (in vitro): 7.8 min | level in plasma and brain 1 h after injection (LC-MS) [21]: below the limits of detection | TNFα secretion in LPS-stimulated microglia (N9 microglial cells): significantly and dose-dependently decreased TNFα secretion

CN1CCN(Cc2ccc(-c3cnc4[nH]cc(-c5cccc(Cl)c5)c4c3)cc2)CC1 [Compound 7ad, 3-(3-Chlorophenyl)-5-(4-((4-methylpiperazin-1-yl)methyl)phenyl)-1H-pyrrolo[2,3-b]pyridine]
EC50 ([1]; Homo sapiens, Neuron): 285 nM | viability at 1 µM ([1]; Homo sapiens, Neuron): 87.7% | Emax ([1]; Homo sapiens, Neuron): 87.7% | half-life at 20 μM (in vitro): > 30 min

CN1CCN(Cc2ccc(-c3cnc4[nH]cc(-c5cnn(Cc6ccccc6)c5)c4c3)cc2)CC1 [Compound 7ah, 3-(1-Benzyl-1H-pyrazol-4-yl)-5-(4-((4-methylpiperazin-1-yl)methyl)phenyl)-1H-pyrrolo[2,3-b]pyridine]
EC50 ([1]; Homo sapiens, Neuron): 234 nM | viability at 1 µM ([1]; Homo sapiens, Neuron): 67.1% | Emax ([1]; Homo sapiens, Neuron): 67.1%

Cc1nn(C)c(C)c1-c1c[nH]c2ncc(-c3ccc(CN4CCN(C)CC4)cc3)cc12 [Compound 7ai, 5-(4-((4-Methylpiperazin-1-yl)methyl)phenyl)-3-(1,3,5-trimethyl-1H-pyrazol-4-yl)-1H-pyrrolo[2,3-b]pyridine]
EC50 ([1]; Homo sapiens, Neuron): 3230 nM | Emax ([1]; Homo sapiens, Neuron): 86.5%

CN1CCN(Cc2ccc(-c3cnc4[nH]cc(-c5ccccc5Cl)c4c3)cc2)CC1 [Compound 7as, 3-(2-Chlorophenyl)-5-(4-((4-methylpiperazin-1-yl)methyl)phenyl)-1H-pyrrolo[2,3-b]pyridine]
EC50 ([1]; Homo sapiens, Neuron): 329 nM | viability at 1 µM ([1]; Homo sapiens, Neuron): 80.8% | Emax ([1]; Homo sapiens, Neuron): 80.8%

COc1ccccc1-c1c[nH]c2ncc(-c3ccc(CN4CCN(C)CC4)cc3)cc12 [Compound 7at, 3-(2-Methoxyphenyl)-5-(4-((4-methylpiperazin-1-yl)methyl)phenyl)-1H-pyrrolo[2,3-b]pyridine]
EC50 ([1]; Homo sapiens, Neuron): 297 nM | viability at 1 µM ([1]; Homo sapiens, Neuron): 67.5% | Emax ([1]; Homo sapiens, Neuron): 85% | half-life at 20 μM (in vitro): > 30 min

CN1CCN(Cc2ccc(-c3cnc4[nH]cc(-c5ccc6c(c5)OCCO6)c4c3)cc2)CC1 [Compound 7d, 3-(2,3-Dihydrobenzo[b][1,4]dioxin-6-yl)-5-(4-((4-methylpiperazin-1-yl)methyl)phenyl)-1H-pyrrolo[2,3-b]pyridine]
EC50 ([1]; Homo sapiens, Neuron): 327 nM | viability at 1 µM ([1]; Homo sapiens, Neuron): 72.9% | Emax ([1]; Homo sapiens, Neuron): 72.9%

CN1CCN(Cc2ccc(-c3cnc4[nH]cc(-c5ccncc5)c4c3)cc2)CC1 [Compound 7n, 5-(4-((4-Methylpiperazin-1-yl)methyl)phenyl)-3-(pyridin-4-yl)-1H-pyrrolo[2,3-b]pyridine]
EC50 ([1]; Homo sapiens, Neuron): 483 nM | viability at 1 µM ([1]; Homo sapiens, Neuron): 36.3% | Emax ([1]; Homo sapiens, Neuron): 36.3%

CN1CCN(Cc2ccc(-c3cnc4[nH]cc(-c5ccoc5)c4c3)cc2)CC1 [Compound 7w, 3-(Furan-3-yl)-5-(4-((4-methylpiperazin-1-yl)methyl)phenyl)-1H-pyrrolo[2,3-b]pyridine]
EC50 ([1]; Homo sapiens, Neuron): 1370 nM | viability at 1 µM ([1]; Homo sapiens, Neuron): 46.6% | Emax ([1]; Homo sapiens, Neuron): 0.42%

OCCN1CCN(Cc2ccc(-c3cnc4[nH]cc(-c5cccc(Cl)c5)c4c3)cc2)CC1 [Compound 12k, 2-(4-(4-(3-(3-Chlorophenyl)-1H-pyrrolo[2,3-b]pyridin-5-yl)benzyl)piperazin-1-yl)ethan-1-ol]
EC50 [1]: 100 nM | EC50 ([1]; Homo sapiens, Neuron): 99 nM | Emax ([1]; Homo sapiens, Neuron): 112% | remaining activity at 0.1 µM [2]: 101% | remaining activity at 0.1 µM [3]: 59.8% | remaining activity at 0.1 µM [4]: 100% | remaining activity at 0.1 µM [5]: 108% | remaining activity at 0.1 µM [6]: 95.4% | remaining activity at 0.1 µM [7]: 99.3% | remaining activity at 0.1 µM [8]: 106% | remaining activity at 0.1 µM [9]: 90.9% | remaining activity at 0.1 µM [10]: 93.6% | remaining activity at 0.1 µM [11]: 103% | remaining activity at 0.1 µM [12]: 90% | remaining activity at 0.1 µM [13]: 93.5% | remaining activity at 0.1 µM [14]: 52.5% | remaining activity at 0.1 µM [15]: 92.3% | remaining activity at 0.1 µM [16]: 38.3% | remaining activity at 0.1 µM [17]: 91.6% | remaining activity at 0.1 µM [18]: 102% | remaining activity at 0.1 µM [19]: 71.9% | remaining activity at 0.1 µM [20]: 95.2% | half-life at 20 μM (in vitro): > 120 min | level in plasma and brain 1 h after injection (LC-MS) [21]: still detectable | potency in TNFα release assay relative to compound 1 (times less potent) (N9 microglial cells): ~5 × | TNFα secretion in LPS-stimulated microglia (N9 microglial cells): significantly decreased TNFα secretion
